#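 All cell lines were grown in 96-well plates and treated with compound for 48 hours. TGI denotes the concentration required for complete inhibition of growth.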
# How the values were obtained:
# Test in all cases: NCI anticancer screen, dose series, 48 h
# A498 renal = test system: A498 renal
# SW-620 colon = test system: SW-620 colon
# CCRF-CEM leukemia = test system: CCRF-CEM leukemia
# RXF 393 renal = test system: RXF 393 renal
# SK-OV-3 ovarian = test system: SK-OV-3 ovarian
# OVCAR-3 ovarian = test system: OVCAR-3 ovarian
# IGROV1 ovarian = test system: IGROV1 ovarian
# DU-145 prostate = test system: DU-145 prostate
# MCF7 breast = test system: MCF7 breast
# UACC-62 melanoma = test system: UACC-62 melanoma
# OVCAR-5 ovarian = test system: OVCAR-5 ovarian
# UO-31 renal = test system: UO-31 renal
# SK-MEL-5 melanoma = test system: SK-MEL-5 melanoma
# MDA-MB-231 breast = test system: MDA-MB-231 breast
# KM12 colon = test system: KM12 colon
# PC-3 prostate = test system: PC-3 prostate
# HCT-116 colon = test system: HCT-116 colon
# U251 CNS = test system: U251 CNS
# BT-549 breast = test system: BT-549 breast
# SF-539 CNS = test system: SF-539 CNS
# HCC-2998 colon = test system: HCC-2998 colon
# MDA-N = test system: MDA-N
# SNB-19 CNS = test system: SNB-19 CNS
# HOP-92 NSCLC = test system: HOP-92 NSCLC
# HT29 colon = test system: HT29 colon
# TK-10 renal = test system: TK-10 renal
# MDA-MB-435 = test system: MDA-MB-435
# SF-268 CNS = test system: SF-268 CNS
# T-47D breast = test system: T-47D breast
# K-562 leukemia = test system: K-562 leukemia
# HS 578T breast = test system: HS 578T breast
# ACHN renal = test system: ACHN renal
# UACC-257 melanoma = test system: UACC-257 melanoma
# SK-MEL-2 melanoma = test system: SK-MEL-2 melanoma
# M14 melanoma = test system: M14 melanoma
# HOP-62 NSCLC = test system: HOP-62 NSCLC
# NCI-H460 lung = test system: NCI-H460 lung
# CAKI-1 renal = test system: CAKI-1 renal
# EKVX NSCLC = test system: EKVX NSCLC
# SK-MEL-28 melanoma = test system: SK-MEL-28 melanoma
# HCT-15 colon = test system: HCT-15 colon
# COLO 205 colon = test system: COLO 205 colon
# MOLT-4 leukemia = test system: MOLT-4 leukemia
# RPMI-8226 leukemia = test system: RPMI-8226 leukemia
# LOX IMVI melanoma = test system: LOX IMVI melanoma
# SR leukemia = test system: SR leukemia
# SNB-75 CNS = test system: SNB-75 CNS
# MALME-3M melanoma = test system: MALME-3M melanoma
# NCI-H522 lung = test system: NCI-H522 lung
# NCI-H23 lung = test system: NCI-H23 lung
# SF-295 CNS = test system: SF-295 CNS
# HL-60(TB) leukemia = test system: HL-60(TB) leukemia
# A549 NSCLC = test system: A549 NSCLC
# NCI-H226 lung = test system: NCI-H226 lung
# 786-0 renal = test system: 786-0 renal
# OVCAR-4 ovarian = test system: OVCAR-4 ovarian
# SN12C renal = test system: SN12C renal
# NCI/ADR-RES ovarian = test system: NCI/ADR-RES ovarian
# OVCAR-8 ovarian = test system: OVCAR-8 ovarian
structure (smiles),measurement,setting,value
CC(C)CNC1=NCC(C)S1 (stereo not given),TGI,A498 renal,> 100 µM
same,TGI,SW-620 colon,> 100 µM
same,TGI,CCRF-CEM leukemia,> 100 µM
same,TGI,RXF 393 renal,> 100 µM
same,TGI,SK-OV-3 ovarian,> 100 µM
same,TGI,OVCAR-3 ovarian,> 100 µM
same,TGI,IGROV1 ovarian,> 100 µM
same,TGI,DU-145 prostate,> 100 µM
same,TGI,MCF7 breast,> 100 µM
same,TGI,UACC-62 melanoma,> 100 µM
same,TGI,OVCAR-5 ovarian,> 100 µM
same,TGI,UO-31 renal,> 100 µM
same,TGI,SK-MEL-5 melanoma,> 100 µM
same,TGI,MDA-MB-231 breast,> 100 µM
same,TGI,KM12 colon,> 100 µM
same,TGI,PC-3 prostate,> 100 µM
same,TGI,HCT-116 colon,> 100 µM
same,TGI,U251 CNS,> 100 µM
same,TGI,BT-549 breast,> 100 µM
same,TGI,SF-539 CNS,> 100 µM
same,TGI,HCC-2998 colon,> 100 µM
same,TGI,MDA-N,> 100 µM
same,TGI,SNB-19 CNS,> 100 µM
same,TGI,HOP-92 NSCLC,> 100 µM
same,TGI,HT29 colon,> 100 µM
same,TGI,TK-10 renal,> 100 µM
same,TGI,MDA-MB-435,> 100 µM
same,TGI,SF-268 CNS,> 100 µM
same,TGI,T-47D breast,> 100 µM
same,TGI,K-562 leukemia,> 100 µM
same,TGI,HS 578T breast,> 100 µM
same,TGI,ACHN renal,> 100 µM
same,TGI,UACC-257 melanoma,> 100 µM
same,TGI,SK-MEL-2 melanoma,> 100 µM
same,TGI,M14 melanoma,> 100 µM
same,TGI,HOP-62 NSCLC,> 100 µM
same,TGI,NCI-H460 lung,> 100 µM
same,TGI,CAKI-1 renal,> 100 µM
same,TGI,EKVX NSCLC,> 100 µM
same,TGI,SK-MEL-28 melanoma,> 100 µM
same,TGI,HCT-15 colon,> 100 µM
same,TGI,COLO 205 colon,> 100 µM
same,TGI,MOLT-4 leukemia,> 100 µM
same,TGI,RPMI-8226 leukemia,> 100 µM
same,TGI,LOX IMVI melanoma,> 100 µM
same,TGI,SR leukemia,> 100 µM
same,TGI,SNB-75 CNS,> 100 µM
same,TGI,MALME-3M melanoma,> 100 µM
same,TGI,NCI-H522 lung,> 100 µM
same,TGI,NCI-H23 lung,> 100 µM
same,TGI,SF-295 CNS,> 100 µM
same,TGI,HL-60(TB) leukemia,> 100 µM
same,TGI,A549 NSCLC,> 100 µM
same,TGI,NCI-H226 lung,> 100 µM
O=C(NC(CS)C(=O)O)c1c2ccccc2nc2ccccc12 (stereo not given),TGI,A498 renal,> 100 µM
same,TGI,SW-620 colon,> 100 µM
same,TGI,CCRF-CEM leukemia,> 100 µM
same,TGI,SK-OV-3 ovarian,> 100 µM
same,TGI,OVCAR-3 ovarian,> 100 µM
same,TGI,IGROV1 ovarian,> 100 µM
same,TGI,786-0 renal,> 100 µM
same,TGI,DU-145 prostate,> 100 µM
same,TGI,MCF7 breast,> 100 µM
same,TGI,UACC-62 melanoma,> 100 µM
same,TGI,OVCAR-5 ovarian,> 100 µM
same,TGI,UO-31 renal,43 µM
same,TGI,SK-MEL-5 melanoma,12.8 µM
same,TGI,MDA-MB-231 breast,> 100 µM
same,TGI,KM12 colon,> 100 µM
same,TGI,PC-3 prostate,> 100 µM
same,TGI,HCT-116 colon,> 100 µM
same,TGI,U251 CNS,> 100 µM
same,TGI,BT-549 breast,58.5 µM
same,TGI,SF-539 CNS,> 100 µM
same,TGI,HCC-2998 colon,> 100 µM
same,TGI,MDA-N,> 100 µM
same,TGI,SNB-19 CNS,> 100 µM
same,TGI,HOP-92 NSCLC,> 100 µM
same,TGI,HT29 colon,> 100 µM
same,TGI,TK-10 renal,> 100 µM
same,TGI,MDA-MB-435,16 µM
same,TGI,SF-268 CNS,> 100 µM
same,TGI,K-562 leukemia,> 100 µM
same,TGI,OVCAR-4 ovarian,> 100 µM
same,TGI,ACHN renal,> 100 µM
same,TGI,UACC-257 melanoma,> 100 µM
same,TGI,SK-MEL-2 melanoma,> 100 µM
same,TGI,M14 melanoma,> 100 µM
same,TGI,HOP-62 NSCLC,> 100 µM
same,TGI,NCI-H460 lung,> 100 µM
same,TGI,CAKI-1 renal,> 100 µM
same,TGI,EKVX NSCLC,> 100 µM
same,TGI,SK-MEL-28 melanoma,> 100 µM
same,TGI,HCT-15 colon,> 100 µM
same,TGI,COLO 205 colon,23.5 µM
same,TGI,MOLT-4 leukemia,> 100 µM
same,TGI,RPMI-8226 leukemia,> 100 µM
same,TGI,LOX IMVI melanoma,> 100 µM
same,TGI,SR leukemia,> 100 µM
same,TGI,SNB-75 CNS,> 100 µM
same,TGI,MALME-3M melanoma,56.8 µM
same,TGI,NCI-H522 lung,> 100 µM
same,TGI,SN12C renal,> 100 µM
same,TGI,NCI-H23 lung,68.6 µM
same,TGI,NCI/ADR-RES ovarian,> 100 µM
same,TGI,SF-295 CNS,> 100 µM
same,TGI,OVCAR-8 ovarian,> 100 µM
same,TGI,HL-60(TB) leukemia,> 100 µM
same,TGI,A549 NSCLC,> 100 µM
same,TGI,NCI-H226 lung,> 100 µM
